Assay results from patent US7618972B2, “Substituted triazole derivatives as oxytocin antagonists” (Pfizer Inc, priority 2005, dated 2009).

Biological target: T1, oxytocin receptor (CHO-OTR/NFAT-β-Lactamase cells) (Homo sapiens, UniProt P30559)
T1 construct: expressed in transfected cells; host or cells: CHO-OTR cell line, further transfected with the NFAT-β-lactamase reporter construct
T1 sequence (P30559 1-389): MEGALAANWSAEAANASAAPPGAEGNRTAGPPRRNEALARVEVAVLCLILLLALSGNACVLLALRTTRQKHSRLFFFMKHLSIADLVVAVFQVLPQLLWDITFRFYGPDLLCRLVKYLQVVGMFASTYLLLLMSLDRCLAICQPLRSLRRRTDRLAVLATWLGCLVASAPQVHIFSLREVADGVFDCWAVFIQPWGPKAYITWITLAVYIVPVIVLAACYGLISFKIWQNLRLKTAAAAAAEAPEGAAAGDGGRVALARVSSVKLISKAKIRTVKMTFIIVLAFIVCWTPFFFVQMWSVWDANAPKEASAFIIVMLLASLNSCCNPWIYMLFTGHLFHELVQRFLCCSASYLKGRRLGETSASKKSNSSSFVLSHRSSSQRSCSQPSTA
Assay: Oxytocin Receptor Beta-Lactamase Assay
Assay type: cell-based
Conditions: oxytocin antagonist activity, n=3
Protocol: A suitable assay for determining the oxytocin antagonist activity of a compound is detailed herein below.
Oxytocin Receptor Beta-Lactamase Assay
Cells used are CHO-OTR/NFAT-β-Lactamase. The NFAT-β-lactamase expression construct was transfected into the CHO-OTR cell line and clonal populations were isolated via fluorescence activated cell sorting (FACS). An appropriate clone was selected to develop the assay. […]
Cells grown at 80-90% confluence were harvested and counted. […]
Preparation of 1 ml of 6× Loading Buffer with Enhanced Loading Protocol (this requires scale-up according to number of plates to be screened) • 12 μl of solution A (1 mM CCF4-AM in Dry DMSO) was added to 60 μl of solution B (100 mg/ml Pluronic-F127 in DMSO+0.1% Acetic Acid) and vortexed. • The resulting solution was added to […] of solution C (24% w/w PEG400, 18% TR40 v/v in water). • 75 μl of solution D was added (200 mM probenecid in 200 mM NaOH). • 10 μl of 6× Loading Buffer was added to all wells and incubated for 1.5 hrs-2 hrs at room temperature in the dark. • The plates were read using an LJL Analyst, Excitation 405 nm, Emission 450 nm and 530 nm, gain optimal, lagtime 0.40 μs integration, 4 flashes, bottom reading.

**Q.** For `COc1ccc(-n2c(C)nnc2-c2cnc(-c3ccc(F)cc3Cl)cn2)cn1` [Example 1, 2-(2-Chloro-4-fluoro-phenyl)-5-[4-(6-methoxy-pyridin-3-yl)-5-methyl-4H-[1,2,4]triazol-3-yl]-pyrazine], which Ki is on record?
**A.** 5.4 nM
